From patent US20210278408A1, “METHODS OF TREATMENT OF CANCER WITH SUBSTITUTED PYRROLE AND PYRAZOLE COMPOUNDS AND DIAGNOSIS OF CANCERS SUSCEPTIBLE TO TREATMENT WITH SUBSTITUTED PYRROLE AND PYRAZOLE COMPOUNDS” (Bantam Pharmaceutical, LLC, priority 2018, published 2021) come the findings set out here.

The structures appear in SMILES notation. Counter-ions that a name gives are not always drawn.

This assay concerns BJAB (malignant human B-cell-line). Put plainly: BJAB cell proliferation. Format: cell-based. The note with it: BJAB (malignant human B-cell-line) cell proliferation, EC50; read-out: BJAB. An excerpt: In certain embodiments, the therapeutic compound is one of the compounds of the compound table below. […] In certain embodiments, the therapeutic compound is a compound having an activity as “A,” “B” or “C” in the table below. In certain embodiments, the therapeutic compound is a compound having an activity as “A” or “B” in the table below. In certain embodiments, the therapeutic compound is a compound having an activity as “A” in the table below.
In certain embodiments, the therapeutic compound is one of the compounds of the compound table below, optionally provided as a pharmaceutically-acceptable salt or N-oxide, and/or a solvate or hydrate. […] In certain embodiments, the therapeutic compound is a compound having an activity as “A,” “B” or “C” in the table below. In certain embodiments, the therapeutic compound is a compound having an activity as “A” or “B” in the table below. In certain embodiments, the therapeutic compound is a compound having an activity as “A” in the table below.

For `Cc1nn(-c2nc(N3CCN(C4CC4)CC3)c(SC(C)C)s2)c(C(=O)O)c1-c1cccc(F)c1` [Compound B25, 1-(4-(4-cyclopropylpiperazin-1-yl)-5-(isopropylthio)thiazol-2-yl)-4-(3-fluorophenyl)-3-methyl-1H-pyrazole-5-carboxylic acid], the EC50 was in the range of 5 to 10 µM.

Turning to `CCN1CCN(c2nc(-n3nc(C)c(-c4cccc(F)c4)c3C(=O)O)sc2SC(C)C)CC1` [Compound B26, 1-(4-(4-ethylpiperazin-1-yl)-5-(isopropylthio)thiazol-2-yl)-4-(3-fluorophenyl)-3-methyl-1H-pyrazole-5-carboxylic acid], the EC50 was greater than 20 µM.

Turning to `CC(=O)N1CCN(c2nc(-n3nc(C)c(-c4cccc(F)c4)c3C(=O)O)sc2SC(C)C)CC1` [Compound B27, 1-(4-(4-acetylpiperazin-1-yl)-5-(isopropylthio)thiazol-2-yl)-4-(3-fluorophenyl)-3-methyl-1H-pyrazole-5-carboxylic acid], the EC50 is greater than 20 µM.

Consider `Cc1nn(-c2nc(N3CCC(C)CC3)c(SC(C)C)s2)c(C(=O)O)c1-c1cccc(F)c1` [Compound B28, 4-(3-fluorophenyl)-1-(5-(isopropylthio)-4-(4-methylpiperidin-1-yl)thiazol-2-yl)-3-methyl-1H-pyrazole-5-carboxylic acid], for which the EC50 was in the range of 1 to 5 µM.

With `Cc1nn(-c2nnc(-c3ccc(C(F)(F)F)cc3)s2)c(C(=O)O)c1-c1cccc(F)c1` [Compound B30, 4-(3-fluorophenyl)-3-methyl-1-(5-(4-(trifluoromethyl)phenyl)-1,3,4-thiadiazol-2-yl)-1H-pyrazole-5-carboxylic acid], the EC50 was greater than 20 µM.

Regarding `COCCN(C)c1sc(-n2nc(C)c(-c3cccc(F)c3)c2C(=O)O)nc1-c1ccc(C(F)(F)F)cc1` [Compound B31, 4-(3-fluorophenyl)-1-(5-((2-methoxyethyl)(methyl)amino)-4-(4-(trifluoromethyl)phenyl)thiazol-2-yl)-3-methyl-1H-pyrazole-5-carboxylic acid], the EC50 lay within 1 to 5 µM.

Turning to `Cc1nn(-c2nc(N3CCC(C)(C)CC3)c(SC(C)C)s2)c(C(=O)O)c1-c1cccc(F)c1` [Compound B32, 1-(4-(4,4-dimethylpiperidin-1-yl)-5-(isopropylthio)thiazol-2-yl)-4-(3-fluorophenyl)-3-methyl-1H-pyrazole-5-carboxylic acid], the EC50 was less than 1 µM.

Regarding `Cc1nn(-c2nc(N3CCN(C(=O)OC(C)(C)C)CC3)c(SC(C)C)s2)c(C(=O)O)c1-c1cccc(F)c1` [Compound B33, 1-(4-(4-(tert-butoxycarbonyl)piperazin-1-yl)-5-(isopropylthio)thiazol-2-yl)-4-(3-fluorophenyl)-3-methyl-1H-pyrazole-5-carboxylic acid], the EC50 is greater than 20 µM.

On to `Cc1nn(-c2nc(N3CCC(C(F)(F)F)C3)c(SC(C)C)s2)c(C(=O)O)c1-c1cccc(F)c1` (centres unmarked) [Compound B34, 4-(3-fluorophenyl)-1-(5-(isopropylthio)-4-(3-(trifluoromethyl)pyrrolidin-1-yl)thiazol-2-yl)-3-methyl-1H-pyrazole-5-carboxylic acid], for which the EC50 lay within 1 to 5 µM.

On to `Cc1nn(-c2nc(N3CCNCC3)c(SC(C)C)s2)c(C(=O)O)c1-c1cccc(F)c1` [Compound B35, 4-(3-fluorophenyl)-1-(5-(isopropylthio)-4-(piperazin-1-yl)thiazol-2-yl)-3-methyl-1H-pyrazole-5-carboxylic acid hydrochloric acid salt], for which the EC50 was greater than 20 µM.

Take `CC(C)=Cc1sc(-n2nc(C)c(-c3cccc(F)c3)c2C(=O)O)nc1-c1ccc(C(F)(F)F)cc1` [Compound B36, 4-(3-fluorophenyl)-3-methyl-1-(5-(2-methylprop-1-en-1-yl)-4-(4-(trifluoromethyl)phenyl)thiazol-2-yl)-1H-pyrazole-5-carboxylic acid]: the EC50 is less than 1 µM.

On to `CC(C)=Cc1nc(-n2nc(C)c(-c3cccc(F)c3)c2C(=O)O)sc1-c1ccc(C(F)(F)F)cc1` [Compound B37, 4-(3-fluorophenyl)-3-methyl-1-(4-(2-methylprop-1-en-1-yl)-5-(4-(trifluoromethyl)phenyl)thiazol-2-yl)-1H-pyrazole-5-carboxylic acid], for which the EC50 was in the range of 10 to 25 µM.

Consider `Cc1nn(-c2nc(-c3ccc(C(F)(F)F)cc3)c(-c3ccc(C(F)(F)F)cc3)s2)c(C(=O)O)c1-c1cccc(F)c1` [Compound B38, 1-(4,5-bis(4-(trifluoromethyl)phenyl)thiazol-2-yl)-4-(3-fluorophenyl)-3-methyl-1H-pyrazole-5-carboxylic acid], for which the EC50 is less than 1 µM.

As to `Cc1nn(-c2nc(-c3ccc(C(F)(F)F)cc3)c(-c3ccc(C(F)(F)F)cc3)s2)cc1-c1cccc(F)c1` [Compound B39, 2-(4-(3-fluorophenyl)-3-methyl-1H-pyrazol-1-yl)-4,5-bis(4-(trifluoromethyl)phenyl)thiazole], the EC50 is greater than 20 µM.

As to `Cc1nn(-c2nc(N3CCC(C(C)(C)C)CC3)c(SC(C)C)s2)c(C(=O)O)c1-c1cccc(F)c1` [Compound B40, 1-(4-(4-(tert-butyl)piperidin-1-yl)-5-(isopropylthio)thiazol-2-yl)-4-(3-fluorophenyl)-3-methyl-1H-pyrazole-5-carboxylic acid], the EC50 was less than 1 µM.

With `Cc1nn(-c2nc(N3CCC4(CC3)CC4)c(SC(C)C)s2)c(C(=O)O)c1-c1cccc(F)c1` [Compound B41, 4-(3-fluorophenyl)-1-(5-(isopropylthio)-4-(6-azaspiro[2.5]octan-6-yl)thiazol-2-yl)-3-methyl-1H-pyrazole-5-carboxylic acid], the EC50 fell in the range of 1 to 5 µM.

For the compound `COC1(C(F)(F)F)CCN(c2nc(-n3nc(C)c(-c4cccc(F)c4)c3C(=O)O)sc2SC(C)C)CC1` [Compound B42, 4-(3-fluorophenyl)-1-(5-(isopropylthio)-4-(4-methoxy-4-(trifluoromethyl)piperidin-1-yl)thiazol-2-yl)-3-methyl-1H-pyrazole-5-carboxylic acid], the EC50 is less than 1 µM.

On to `COc1ccc(-c2nc(-n3nc(C)c(-c4cccc(F)c4)c3C(=O)O)sc2-c2ccc(C(F)(F)F)cc2)cc1` [Compound B43, 4-(3-fluorophenyl)-1-(4-(4-methoxyphenyl)-5-(4-(trifluoromethyl)phenyl)thiazol-2-yl)-3-methyl-1H-pyrazole-5-carboxylic acid], for which the EC50 lay in the range of 1 to 5 µM.

For the compound `COc1ccc(-c2nc(-n3nc(C)c(-c4cccc(F)c4)c3C(=O)O)sc2-c2ccc(OC)cc2)cc1` [Compound B44, 1-(4,5-bis(4-methoxyphenyl)thiazol-2-yl)-4-(3-fluorophenyl)-3-methyl-1H-pyrazole-5-carboxylic acid], the EC50 fell in the range of 10 to 25 µM.

For the compound `COc1ccc(-c2sc(-n3nc(C)c(-c4cccc(F)c4)c3C(=O)O)nc2-c2ccc(C(F)(F)F)cc2)cc1` [Compound B45, 4-(3-fluorophenyl)-1-(5-(4-methoxyphenyl)-4-(4-(trifluoromethyl)phenyl)thiazol-2-yl)-3-methyl-1H-pyrazole-5-carboxylic acid], the EC50 was less than 1 µM.

In the case of `Cc1nn(-c2nc(N3CCN(C(C)(C)C)C(=O)C3)c(SC(C)C)s2)c(C(=O)O)c1-c1cccc(F)c1` [Compound B46, 1-(4-(4-(tert-butyl)-3-oxopiperazin-1-yl)-5-(isopropylthio)thiazol-2-yl)-4-(3-fluorophenyl)-3-methyl-1H-pyrazole-5-carboxylic acid], the EC50 is greater than 20 µM.

Consider `CNC(=O)CCc1sc(-n2nc(C)c(-c3cccc(F)c3)c2C(=O)O)nc1-c1ccc(C(F)(F)F)cc1` [Compound B47, 4-(3-fluorophenyl)-3-methyl-1-(5-(3-(methylamino)-3-oxopropyl)-4-(4-(trifluoromethyl)phenyl)thiazol-2-yl)-1H-pyrazole-5-carboxylic acid], for which the EC50 is greater than 20 µM.

For `COCCOC1(C(F)(F)F)CCN(c2nc(-n3nc(C)c(-c4cccc(F)c4)c3C(=O)O)sc2SC(C)C)CC1` [Compound B48, 4-(3-fluorophenyl)-1-(5-(isopropylthio)-4-(4-(2-methoxyethoxy)-4-(trifluoromethyl)piperidin-1-yl)thiazol-2-yl)-3-methyl-1H-pyrazole-5-carboxylic acid], the EC50 fell in the range of 1 to 5 µM.

For the compound `COCCNC(=O)c1ccc(-c2sc(-n3nc(C)c(-c4cccc(F)c4)c3C(=O)O)nc2-c2ccc(C(F)(F)F)cc2)cc1` [Compound B49, 4-(3-fluorophenyl)-1-(5-(4-((2-methoxyethyl)carbamoyl)phenyl)-4-(4-(trifluoromethyl)phenyl)thiazol-2-yl)-3-methyl-1H-pyrazole-5-carboxylic acid], the EC50 is greater than 20 µM.

Regarding `COCCN(C)C(=O)c1ccc(-c2sc(-n3nc(C)c(-c4cccc(F)c4)c3C(=O)O)nc2-c2ccc(C(F)(F)F)cc2)cc1` [Compound B50, 4-(3-fluorophenyl)-1-(5-(4-((2-methoxyethyl)(methyl)carbamoyl)phenyl)-4-(4-(trifluoromethyl)phenyl)thiazol-2-yl)-3-methyl-1H-pyrazole-5-carboxylic acid], the EC50 is greater than 20 µM.

For `COCC(=O)Nc1ccc(-c2sc(-n3nc(C)c(-c4cccc(F)c4)c3C(=O)O)nc2-c2ccc(C(F)(F)F)cc2)cc1` [Compound B51, 4-(3-fluorophenyl)-1-(5-(4-(2-methoxyacetamido)phenyl)-4-(4-(trifluoromethyl)phenyl)thiazol-2-yl)-3-methyl-1H-pyrazole-5-carboxylic acid], the EC50 was in the range of 10 to 25 µM.
